# Measurements published in PubChem BioAssay AID2060346 (Molecular Pharmacology Branch, DTP, NCI, 2025).
# Tested on: CN0375-F725-PDC multi-cell spheroids, viability
# Experiment: Anticancer human tumor CN0375-F725-PDC patient-derived colon carcinoma cell line growth inhibition [TAK]
# Settings: for IC50: curve of first compound; for viability, T/C: stronger effect = lower value
# In short: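 Tumor cells were grown as spheroids with HUVEC and hMSC (60:25:15) and treated with targeted agents combined with TAK-243 or ipatasertib. Drugs were tested in half-log steps down from near the clinical Cmax, or from 10 microM where Cmax was unknown.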
# [1] = second compound 0.3 µM, first compound 0.0316 µM
# [2] = second compound 0.3 µM, first compound 0.1 µM
# [3] = second compound 0.3 µM, first compound 0.316 µM
# [4] = second compound 0.3 µM, first compound 1 µM
# [5] = second compound 0.949 µM, first compound 0.0316 µM
# [6] = second compound 0.949 µM, first compound 0.1 µM
# [7] = second compound 0.949 µM, first compound 0.316 µM
# [8] = second compound 0.949 µM, first compound 1 µM
# [9] = second compound 3 µM, first compound 0.0316 µM
# [10] = second compound 3 µM, first compound 0.1 µM
# [11] = second compound 3 µM, first compound 0.316 µM
# [12] = second compound 3 µM, first compound 1 µM
# [13] = second compound 9.49 µM, first compound 0.0316 µM
# [14] = second compound 9.49 µM, first compound 0.1 µM
# [15] = second compound 9.49 µM, first compound 0.316 µM
# [16] = second compound 9.49 µM, first compound 1 µM
# [17] = second compound 30 µM, first compound 0.0316 µM
# [18] = second compound 30 µM, first compound 0.1 µM
# [19] = second compound 30 µM, first compound 0.316 µM
# [20] = second compound 30 µM, first compound 1 µM
# 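Also: spheroids exposed to drugs for seven days.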
# 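For viability, T/C in this document: 100% = DMSO vehicle control wells.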
smiles,measurement,setting,value
COc1c(OCCCN2CCOCC2)ccc2c3n(c(=NC(=O)c4cnc(N)nc4)nc12)CCN3 + CC(C)NCC(C(=O)N1CCN(c2ncnc3c2C(C)CC3O)CC1)c1ccc(Cl)cc1,IC50,second compound 0.3 µM,0.247 µM
same,IC50,second compound 0.949 µM,0.211 µM
same,IC50,second compound 3 µM,0.206 µM
same,IC50,second compound 9.49 µM,0.154 µM
same,IC50,second compound 30 µM,0.0843 µM
same,"viability, T/C","second compound 0.3 µM, first compound 0.00316 µM",103%
same,"viability, T/C","second compound 0.3 µM, first compound 0.01 µM",88.3%
same,"viability, T/C",[1],81.1%
same,"viability, T/C",[2],61.7%
same,"viability, T/C",[3],45.6%
same,"viability, T/C",[4],34.7%
same,"viability, T/C","second compound 0.949 µM, first compound 0.00316 µM",100%
same,"viability, T/C","second compound 0.949 µM, first compound 0.01 µM",91.8%
same,"viability, T/C",[5],80.1%
same,"viability, T/C",[6],61.3%
same,"viability, T/C",[7],42.7%
same,"viability, T/C",[8],37.6%
same,"viability, T/C","second compound 3 µM, first compound 0.00316 µM",98.8%
same,"viability, T/C","second compound 3 µM, first compound 0.01 µM",83.1%
same,"viability, T/C",[9],78.5%
same,"viability, T/C",[10],60.4%
same,"viability, T/C",[11],41.9%
same,"viability, T/C",[12],33%
same,"viability, T/C","second compound 9.49 µM, first compound 0.00316 µM",92.7%
same,"viability, T/C","second compound 9.49 µM, first compound 0.01 µM",80.2%
same,"viability, T/C",[13],69.9%
same,"viability, T/C",[14],55.5%
same,"viability, T/C",[15],40.4%
same,"viability, T/C",[16],34.8%
same,"viability, T/C","second compound 30 µM, first compound 0.00316 µM",76.2%
same,"viability, T/C","second compound 30 µM, first compound 0.01 µM",70.5%
same,"viability, T/C",[17],62%
same,"viability, T/C",[18],47.8%
same,"viability, T/C",[19],37.5%
same,"viability, T/C",[20],32.6%
Cc1nc(NC(=O)N2CCCC2C(N)=O)sc1-c1ccnc(C(C)(C)C(F)(F)F)c1 (stereo not given) + CC(C)NCC(C(=O)N1CCN(c2ncnc3c2C(C)CC3O)CC1)c1ccc(Cl)cc1,IC50,second compound 0.3 µM,> 10 µM
same,IC50,second compound 0.949 µM,> 10 µM
same,IC50,second compound 3 µM,> 10 µM
same,IC50,second compound 9.49 µM,9.46 µM
same,IC50,second compound 30 µM,4.99 µM
same,"viability, T/C",[1],102%
same,"viability, T/C",[2],95.6%
same,"viability, T/C",[3],89.5%
same,"viability, T/C",[4],82.1%
same,"viability, T/C","second compound 0.3 µM, first compound 3.16 µM",74.4%
same,"viability, T/C","second compound 0.3 µM, first compound 10 µM",52.5%
same,"viability, T/C",[5],101%
same,"viability, T/C",[6],97.7%
same,"viability, T/C",[7],94.4%
same,"viability, T/C",[8],88.7%
same,"viability, T/C","second compound 0.949 µM, first compound 3.16 µM",74.3%
same,"viability, T/C","second compound 0.949 µM, first compound 10 µM",57.9%
same,"viability, T/C",[9],98.6%
same,"viability, T/C",[10],98.4%
same,"viability, T/C",[11],86.7%
same,"viability, T/C",[12],81.8%
same,"viability, T/C","second compound 3 µM, first compound 3.16 µM",71.7%
same,"viability, T/C","second compound 3 µM, first compound 10 µM",51.6%
same,"viability, T/C",[13],89.4%
same,"viability, T/C",[14],94.5%
same,"viability, T/C",[15],88.1%
same,"viability, T/C",[16],79.5%
same,"viability, T/C","second compound 9.49 µM, first compound 3.16 µM",66.7%
same,"viability, T/C","second compound 9.49 µM, first compound 10 µM",49%
same,"viability, T/C",[17],80%
same,"viability, T/C",[18],82%
same,"viability, T/C",[19],71.7%
same,"viability, T/C",[20],67.4%
same,"viability, T/C","second compound 30 µM, first compound 3.16 µM",59.9%
same,"viability, T/C","second compound 30 µM, first compound 10 µM",37.9%
